Assays:
[1] = tested on: HCT116 cells; experiment: HCT116 cell growth and viability; format: cell-based; conditions: at the tested concentrations (data not shown)
Excerpt: We have previously shown that knockdown of KLK6 reduces migration and invasion of HCT116 cells in vitro.13 In order to test whether this effect could be recapitulated with small molecule KLK6 inhibitors, we measured the ability of 32 to reduce invasion of HCT116 cells. […] HCT116 cell growth and viability was not altered upon treatment with compounds 9 and 32 at the tested concentrations (data not shown).

[2] = in vitro; conditions: female, CD1, mouse, plasma
Procedure: Plasma protein binding assay: Briefly, a 96 well equilibrium dialysis apparatus was used to determine the free fraction in plasma for each compound (HT Dialysis LLC, Gales Ferry, CT). Membranes (12–14 kDa cut‐off) were conditioned in deionized water for 60 minutes, followed by conditioning in 80 : 20 deionized water: ethanol for overnight at 4 °C and then rinsed in isotonic buffer before use. Female CD1 mouse plasma was removed from the freezer and allowed to thaw on the day of experiment. Thawed plasma was then centrifuged (Allegra X12‐R, Beckman Coulter, USA), spiked with test compound (final concentration 10 μg/mL), and 150 μL aliquots (n=6 replicate determinations) loaded into the 96‐well equilibrium dialysis plate. Dialysis vs isotonic buffer (150 μL) was carried out for 5 h in a temperature‐controlled incubator at 37 °C (Barworld scientific Ltd, UK) using an orbital microplate shaker at 100 rpm (Barworld scientific Ltd, UK). […] All samples were analyzed by UPLC‐MS/MS on a Quattro Premier XE Mass Spectrometer (Waters Corporation, USA). The unbound fraction was determined as the ratio of the peak area in buffer to that in plasma.

[3] = molecular target: KLK6 (Homo sapiens, UniProt Q92876); experiment: KLK6 enzymatic inhibition assay (fluorogenic Boc-Phe-Ser-Arg-AMC substrate); format: biochemical; design: made in house
Procedure: Using our previously published KLK6 assay format,21 we performed a HTS with the European Lead Factory (ELF),22 and tested ∼350,000 substances at 10 μM for their ability to reduce KLK6‐catalyzed hydrolysis of the fluorogenic Boc‐Phe‐Ser‐Arg‐AMC peptide.
High Throughput Screen: The European Lead Factory library of ∼350,000 compounds was used for high throughput screening at the Pivot Park Screening Center facilities in Oss, The Netherlands. […] For SPR, Biacore T200 was used and KLK6 was immobilized onto a CM5 chip. […] An 8 point 1 in 3 dilution series of 1 (50 μM to 0.02 μM) was also applied at the beginning and end of each screening day.
Enzyme inhibition assays: All chemicals were purchased from Sigma Aldrich (Gillingham, UK) unless otherwise stated.

[4] = molecular target: KLK4 (Homo sapiens, UniProt Q9Y5K2); experiment: KLK4 inhibition (selectivity); format: biochemical; conditions: read-out: KLK4 pIC50 (converted)
Sequence of KLK4 (Q9Y5K2 31-254, species assumed): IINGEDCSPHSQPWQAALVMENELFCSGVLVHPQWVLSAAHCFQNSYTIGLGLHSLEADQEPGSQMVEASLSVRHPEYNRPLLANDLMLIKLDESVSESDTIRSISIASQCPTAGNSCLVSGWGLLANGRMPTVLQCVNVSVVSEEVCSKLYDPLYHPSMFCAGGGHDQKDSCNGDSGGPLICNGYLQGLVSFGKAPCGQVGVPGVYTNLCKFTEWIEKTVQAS
Excerpt: Table 3 Activity of synthesized inhibitors against KLK6 and related proteases. | column: KLK4^a

[5] = Microsomal intrinsic clearance, human microsomes; format: in vitro ADME
Procedure: Immediately, at time zero, then at 3, 6, 9, 15 and 30 min an aliquot (50 μL) of the incubation mixture was removed and mixed with acetonitrile (100 μL) to stop the reaction. Internal standard was added to all samples, the samples centrifuged to sediment precipitated protein and the plates then sealed prior to UPLC‐MS/MS analysis using a Quattro Premier XE (Waters Corporation, USA). XLfit (IDBS, UK) was used to calculate the exponential decay and consequently the rate constant (k) from the ratio of peak area of test compound to internal standard at each timepoint. The rate of intrinsic clearance (CLint) of each test compound was then calculated using the following calculation: CLint (mL/min/g liver)=k×V×Microsomal protein yield. Where V (mL/mg protein) is the incubation volume/mg protein added and microsomal protein yield is taken as 52.5 mg protein/g liver. Verapamil (0.5 μM) was used as a positive control to confirm acceptable assay performance.

[6] = molecular target: T1, KLK7 (Homo sapiens, UniProt P49862); experiment: KLK7 enzyme inhibition assay; format: biochemical; conditions: read-out: KLK7 pIC50 (converted)
T1 construct: purchased 2B scientific
T1 sequence (P49862 30-253, species assumed): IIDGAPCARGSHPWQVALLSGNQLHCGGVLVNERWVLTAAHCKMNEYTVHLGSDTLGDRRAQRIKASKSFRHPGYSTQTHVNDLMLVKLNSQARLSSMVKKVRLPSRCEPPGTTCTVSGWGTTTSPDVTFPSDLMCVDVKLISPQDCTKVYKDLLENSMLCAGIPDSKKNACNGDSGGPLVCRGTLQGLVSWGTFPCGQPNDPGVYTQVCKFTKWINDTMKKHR
Procedure: Enzyme inhibition assays: All chemicals were purchased from Sigma Aldrich (Gillingham, UK) unless otherwise stated. All experiments were conducted in 384 well black, low volume microplates (Greiner 784076) with a final volume of 20 μL and compounds were dispensed into assay plates using an ECHO 550 acoustic dispenser (Labcyte). KLK6 (5 nM) (prepared as in ref. 21) was incubated with test compounds for 30 min at room temperature in assay buffer (50 mM Tris, pH 7.5, 150 mM NaCl, 1 mM EDTA, 0.05 % tween 20, 0.1 % bovine serum albumin (BSA), 1 mM dithiothreitol (DTT)) before the reaction was started by addition of 20 μM Boc‐Phe‐Ser‐Arg‐AMC substrate (Bachem). Fluorescence intensity was read at ex/em 355/460 following incubation for 2 h in the dark at room temperature.
Assays using KLK7 and KLK8 (2B scientific) were conducted in the same manner as for KLK6 with the following exceptions. Both KLK7 and KLK8 required activation before assaying. KLK7 was combined with an equal volume of 20 μg/ml thermolysin (R&D systems) in activation buffer (50 mM Tris, pH 7.5, 10 mM CaCl2, 150 mM NaCl and 0.05 % Brij‐L23) and incubated at 37 °C for 2 h, the reaction was stopped with the addition of 100 mM EDTA in stop solution (50 mM Tris, 150 mM NaCl, pH 8.5). KLK8 was combined with an equal volume of 0.4 mU/mL lysyl endopeptidase (Alpha laboratories) in activation buffer (50 mM Tris, pH 8.0) and incubated at 37 °C for 30 min. Activated KLK7 (40 nM) and KLK8 (25 nM) were assayed with 40 μM Mca‐RPKPVE‐Nval‐WRK(Dnp)‐NH2 fluorogenic MMP substrate (R&D systems) and 25 μM Boc‐V‐P‐R‐AMC substrate (R&D systems), respectively.

Structure (SMILES): CC[C@H](NC(=O)[C@H]1CN(c2ccc(C(=N)N)cc2)C(=O)O1)c1cccc2ccccc12 [Compound 32, (5R)‐3‐(4‐carbamimidoylphenyl)‐N‐((S)‐1‐(naphthalen‐1‐yl)propyl)‐2‐oxooxazolidine‐5‐carboxamide]
- HCT116 cell growth and viability [1]: not altered
- fraction unbound at 5 h, 10 μg/mL [2]: 0.11
- gain in potency for KLK6 ([3]; relative to 5): ~100 fold
- IC50 ([3]; synthesized inhibitors (Table 3), 8.6 = assay limit, read-out: KLK6 pIC50 (converted)): 2.51 nM
- IC50 [4]: 158 nM
- Human CLint [5]: 3.1 mL/min/g
- IC50 [6]: > 20000 nM

— PMC7004151, “Synthesis and Structure‐Activity Relationships of N‐(4‐Benzamidino)‐Oxazolidinones: Potent and Selective Inhibitors of Kallikrein‐Related Peptidase 6” (Chemmedchem, 2019)
